Laboratory results published in patent US7098218B2, “Steroidal compounds for inhibiting steroid sulphatase” (priority 2001, dated 2006).

Tests used:
[1] = target: T1, E2DH Type II (HSD Type II) in MDA-MB231 breast cancer cells (Homo sapiens, UniProt P37059); test: Conversion of oestradiol to oestrone in intact MDA-MB231 cell monolayers (Protocol 7); type: cell-based; details: MDA-MB-231, measured at 10 μM, read-out: % Inhibition E2 → E1 ± SD (HSD Type II)
T1 construct: endogenous in cells; host or cells: MDA-MB-231 breast cancer cells
T1 sequence (P37059 1-387): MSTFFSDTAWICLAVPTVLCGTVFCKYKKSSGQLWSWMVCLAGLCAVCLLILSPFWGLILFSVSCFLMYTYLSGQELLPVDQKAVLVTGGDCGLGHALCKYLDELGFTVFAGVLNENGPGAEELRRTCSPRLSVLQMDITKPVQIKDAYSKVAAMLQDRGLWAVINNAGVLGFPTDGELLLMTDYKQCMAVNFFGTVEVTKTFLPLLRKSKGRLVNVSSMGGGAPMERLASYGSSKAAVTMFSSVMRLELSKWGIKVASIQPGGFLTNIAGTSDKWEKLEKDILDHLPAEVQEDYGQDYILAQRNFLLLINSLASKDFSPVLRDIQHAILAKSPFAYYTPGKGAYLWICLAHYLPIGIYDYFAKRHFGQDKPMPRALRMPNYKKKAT
Description: (§1) The ability of compounds to inhibit steroid dehydrogenase activity can be assessed using either T47D breast cancer cells in which E2HSD Type I activity is abundant or MDA-MB-231 cells for Type II inhibitor studies. In both cell lines formation of products is linear with respect to time and cell numbers. Details on a suitable Assay Protocol are presented in the Examples section.
(§2) Conversion of oestrone to oestradiol (E1→E2, E2DH Type I) and oestradiol to oestrone (E2→E1, E2DH Type II) was measured in intact cell monolayers of T47D and MDA-MB231 breast cancer cells respectively. Cells were cultured in flasks until they were 80–90% confluent. ^3 H-E1 or ^3H-E2 (6 pmol, ˜90 Ci/mmol) were added to each flask in the absence (control) or presence of various test compounds (10 μM) in 2.5 ml of medium. Substrate was also added to flasks without cells and incubated in parallel (blanks).
(§3) After incubation with T47D cells for 30 min or MDA cells for 3 h at 37° C., 2 ml of the medium was added to test tubes containing ^14C-E2 or ^14C-E1 (˜5000 cpm) and 50 μg E2 or E1 respectively. Steroids were extracted from the aqueous medium with diethyl ether (4 ml). The ether phase was decanted into separate tubes after freezing the aqueous phase in solid carbon dioxide-methanol mixture. The ether was evaporated to dryness under a stream of air at 40° C. The residue was dissolved in a small volume of diethyl ether and applied to TLC plates containing a fluorescent indicator. E1 and E2 were separated by TLC using DCM-Ethyl acetate (4:1 v/v). The position of the product from each incubation flask was marked on the TLC plate after visualisation under UV light. The marked regions were cut out and placed in scintillation vials containing methanol (0.5 ml) to elute the product. The amount of ^3 H-product formed and ^14C-E1 or ^14C-E2 recovered were calculated after scintillation spectrometry. The amount of product formed was corrected for procedural losses and for the number of cells in each flask.

[2] = target: T2, E2DH Type I (HSD Type I) in T47D breast cancer cells (Homo sapiens, UniProt P14061); test: Conversion of oestrone to oestradiol in intact T47D cell monolayers (Protocol 7); type: cell-based; details: measured at 10 μM; for inhibition at 10 µM: T47D, read-out: % Inhibition E1 → E2 ± SD (HSD Type I)
T2 construct: T47D breast cancer cells in which E2HSD Type I activity is abundant; endogenous in cells; host or cells: T47D breast cancer cells
T2 sequence (P14061 2-328 limits assumed): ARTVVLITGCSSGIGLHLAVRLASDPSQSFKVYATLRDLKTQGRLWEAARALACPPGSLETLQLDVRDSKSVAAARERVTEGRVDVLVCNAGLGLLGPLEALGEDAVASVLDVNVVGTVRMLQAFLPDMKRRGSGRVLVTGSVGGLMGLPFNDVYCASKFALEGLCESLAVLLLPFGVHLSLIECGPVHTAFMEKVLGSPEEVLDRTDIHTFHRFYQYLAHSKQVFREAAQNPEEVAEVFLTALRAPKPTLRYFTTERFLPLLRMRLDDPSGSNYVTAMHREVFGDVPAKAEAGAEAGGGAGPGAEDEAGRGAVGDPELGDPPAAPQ
Description: as §1, §2, §3

[3] = target: T3, human placental steroid sulphatase (Homo sapiens, UniProt P08842); test: Inhibition of oestrone sulphatase activity in human placental microsomes; type: biochemical; details: for inhibition at 0.0001 µM / inhibition at 0.001 µM / inhibition at 0.01 µM / inhibition at 0.1 µM / inhibition at 1 µM / inhibition at 10 µM: read-out: Mean % Inhibition ± SD
T3 construct: Placental microsomes (100000 g fraction) were prepared from a positive-positive human placenta from a normal-term pregnancy; from tissue; host or cells: human placenta, microsomal fraction
T3 sequence (P08842 22-583): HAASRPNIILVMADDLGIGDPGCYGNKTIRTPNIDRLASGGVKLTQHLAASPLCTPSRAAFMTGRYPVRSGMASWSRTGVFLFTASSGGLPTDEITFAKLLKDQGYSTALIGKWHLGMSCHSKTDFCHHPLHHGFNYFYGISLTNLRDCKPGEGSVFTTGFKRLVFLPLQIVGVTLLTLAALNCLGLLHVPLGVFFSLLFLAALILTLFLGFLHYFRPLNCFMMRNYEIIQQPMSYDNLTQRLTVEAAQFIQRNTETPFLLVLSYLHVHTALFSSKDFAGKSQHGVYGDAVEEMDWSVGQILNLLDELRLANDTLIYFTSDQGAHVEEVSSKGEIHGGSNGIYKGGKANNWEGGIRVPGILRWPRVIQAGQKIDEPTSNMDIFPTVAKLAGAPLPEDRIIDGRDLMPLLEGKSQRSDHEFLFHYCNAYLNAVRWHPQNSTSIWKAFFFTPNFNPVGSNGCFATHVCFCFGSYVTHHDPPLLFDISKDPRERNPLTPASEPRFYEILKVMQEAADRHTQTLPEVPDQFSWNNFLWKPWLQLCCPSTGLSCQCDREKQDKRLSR

STS = target: T4, STS (Homo sapiens, UniProt P08842); test: biochemical; details: STS IC50 (nM), inhibition of E1S→E1; Table 1
T4 construct: can be assessed using either intact MCF-7 breast cancer cells or placental microsomes
T4 sequence (P08842 22-583): T3 sequence (P08842 22-583)

Compound	inhibition at 10 µM [1]	inhibition at 10 µM [2]	melting point	further results
C[C@]12CCC3c4ccc(O)cc4CCC3C1CC(=O)NC2=O (stereo partly shown) [compound 187]	-15.4 ± 0.41%	25.3 ± 2.2%	–	–
C[C@]12CCC3c4ccc(O)cc4CCC3C1CC(=O)N(CCCCBr)C2=O (stereo partly shown) [compound 235]	10.7 ± 0.78%	16.6 ± 1.46%	–	–
C=CCN1C(=O)CC2C3CCc4cc(O)ccc4C3CC[C@]2(C)C1=O (stereo partly shown)	–	–	147 to 149 °C	–
C[C@]12CCC3c4ccc(O)cc4CCC3C1CC(=O)N(CC1CC1)C2=O (stereo partly shown) [compound 278]	8.31 ± 2.46%	24.2 ± 1.71%	–	–
C[C@]12CCC3c4ccc(OS(N)(=O)=O)cc4CCC3C1CC(=O)NC2=O (stereo partly shown) [Compound 36, 3-Sulfamoyl-16,17-seco-estra-1,3,5(10)-Triene16,17-imide]	–	–	–	IC50 [3]: 20 nM; inhibition at 0.0001 µM [3]: -6.5 ± 3.6%; inhibition at 0.001 µM [3]: -2.5 ± 3%; inhibition at 0.01 µM [3]: 17.4 ± 32.3%; inhibition at 0.1 µM [3]: 72.6 ± 3.1%; inhibition at 1 µM [3]: 93.8 ± 4.2%; inhibition at 10 µM [3]: 98.7 ± 2.7%
C[C@]12CCC3c4ccc(O)cc4CCC3C1CC(=O)N(CCCCBr)C2=O (stereo partly shown)	–	–	165 to 167 °C	–
C[C@]12CCC3c4ccc(OS(N)(=O)=O)cc4CCC3C1CC(=O)N(CCCCBr)C2=O (stereo partly shown) [compound 286]	-2.98 ± 0.38%	26 ± 3.23%	–	–
C=CCN1C(=O)CC2C3CCc4cc(OS(N)(=O)=O)ccc4C3CC[C@]2(C)C1=O (stereo partly shown) [compound 280]	–	–	–	IC50 (STS): 75 nM
C[C@]12CCC3c4ccc(O)cc4CCC3C1CC(=O)N(Cc1cccnc1)C2=O (stereo partly shown) [compound 234]	-1.45 ± 11.4%	25.8 ± 9.27%	–	–
COc1cc2c(cc1O)CCC1C2CC[C@]2(C)C(=O)NC(=O)CC12 (stereo partly shown) [compound 325]	-20.2 ± 14.8%	7.78 ± 2.45%	–	–
CCCCCCN1C(=O)CC2C3CCc4cc(O)ccc4C3CC[C@]2(C)C1=O (stereo partly shown)	–	–	157 to 159 °C	–
C[C@]12CCC3c4ccc(OS(N)(=O)=O)cc4CCC3C1CC(=O)N(Cc1cccnc1)C2=O (stereo partly shown) [compound 237]	–	-2%	–	–
CN1C(=O)CC2C3CCc4cc(O)ccc4C3CC[C@]2(C)C1=O (stereo partly shown)	–	–	328 to 330 °C	–
CN1C(=O)CC2C3CCc4cc(OS(N)(=O)=O)ccc4C3CC[C@]2(C)C1=O (stereo partly shown) [Compound 37, 3-Sulfamoyl-N-methyl-16,17-seco-estra-1,3,5(10)-triene-16,17-imide]	–	–	–	IC50 [3]: 12 nM; inhibition at 0.0001 µM [3]: 4.7 ± 3%; inhibition at 0.001 µM [3]: 15 ± 2.6%; inhibition at 0.01 µM [3]: 46.4 ± 6%; inhibition at 0.1 µM [3]: 81.9 ± 3.3%; inhibition at 1 µM [3]: 96.4 ± 5.1%; inhibition at 10 µM [3]: 99.1 ± 0.2%
CC(C)(C)c1ccc(CN2C(=O)CC3C4CCc5cc(O)ccc5C4CC[C@]3(C)C2=O)cc1 (stereo partly shown) [compound 279]	3.87 ± 4.97%	16 ± 0.88%	–	–
C[C@]12CCC3c4ccc(O)cc4CCC3C1CC(=O)N(CC1CC1)C2=O (stereo partly shown)	–	–	238 to 240 °C	–
CCCCCN1C(=O)CC2C3CCc4cc(O)ccc4C3CC[C@]2(C)C1=O (stereo partly shown)	–	–	181 to 184 °C	–

Compound	inhibition at 10 µM [1]	inhibition at 10 µM [2]	melting point	further results
CCN1C(=O)CC2C3CCc4cc(O)ccc4C3CC[C@]2(C)C1=O (stereo partly shown)	–	–	306 to 308 °C	–
CCCCCCN1C(=O)CC2C3CCc4cc(OS(N)(=O)=O)ccc4C3CC[C@]2(C)C1=O (stereo partly shown) [compound 282]	–	–	–	IC50 (STS): 288 nM
CCCCN1C(=O)CC2C3CCc4cc(O)ccc4C3CC[C@]2(C)C1=O (stereo partly shown) [compound 277]	13.2 ± 9.74%	18.6 ± 0.89%	–	–
C[C@]12CCC3c4ccc(OS(N)(=O)=O)cc4CCC3C1CC(=O)N(Cc1ccccc1)C2=O (stereo partly shown) [STX 236, 3-Sulfamoyl-N-benzyl-16,17-seco-estra-1,3,5(10)-triene-16,7-imide]	–	–	–	inhibition of STS (in words) ([3]; in vitro): in a minor extend
CCCN1C(=O)CC2C3CCc4cc(O)ccc4C3CC[C@]2(C)C1=O (stereo partly shown) [compound 189]	5.05 ± 2.31%	17 ± 3.25%	–	–
C=CCN1C(=O)CC2C3CCc4cc(O)ccc4C3CC[C@]2(C)C1=O (stereo partly shown) [compound 274]	-4.04 ± 0.36%	36.82 ± 0.36%	–	–
C[C@]12CCC3c4ccc(O)cc4CCC3C1CC(=O)N(Cc1ccccc1)C2=O (stereo partly shown) [compound 233]	35.8 ± 3.88%	58.8 ± 0.68%	–	% Inhibition E1 → E2 ± SD (HSD Type I) ([2]; 10 µM): 57.43 ± 1.89%
CC(C)(C)c1ccc(CN2C(=O)CC3C4CCc5cc(O)ccc5C4CC[C@]3(C)C2=O)cc1 (stereo partly shown)	–	–	128 to 130 °C	–
CCCN1C(=O)CC2C3CCc4cc(O)ccc4C3CC[C@]2(C)C1=O (stereo partly shown)	–	–	183 to 186 °C	–
CN1C(=O)CC2C3CCc4cc(O)ccc4C3CC[C@]2(C)C1=O (stereo partly shown) [compound 188]	-3.51 ± 2.44%	33 ± 1.79%	–	–
CCN1C(=O)CC2C3CCc4cc(O)ccc4C3CC[C@]2(C)C1=O (stereo partly shown) [compound 275]	32.1 ± 1.06%	42.5 ± 3.02%	–	–
C[C@]12CCC3c4ccc(O)cc4CCC3C1CC(=O)N(Cc1ccccc1)C2=O (stereo partly shown)	–	–	298 to 301 °C	–
CCCCCCN1C(=O)CC2C3CCc4cc(O)ccc4C3CC[C@]2(C)C1=O (stereo partly shown) [compound 276]	8.32 ± 7.5%	22.7 ± 2.2%	–	–
C[C@]12CCC3c4ccc(O)cc4CCC3C1CC(=O)NC2=O (stereo partly shown)	–	–	297 to 300 °C	–
CCCCN1C(=O)CC2C3CCc4cc(OS(N)(=O)=O)ccc4C3CC[C@]2(C)C1=O (stereo partly shown) [compound 283]	–	–	–	IC50 (STS): 382 nM
CCCCCN1C(=O)CC2C3CCc4cc(O)ccc4C3CC[C@]2(C)C1=O (stereo partly shown) [compound 190]	0.48 ± 4.76%	24.1 ± 4.59%	–	–
